Assay results as given in the supplement of paper PMC5908809.

How the values were obtained:
[1] = test system: normal NK cells expanded with K562-aAPC; assay: drug sensitivity score (DSS) (DSS units); higher = more sensitive; extreme values may be limits of the assay; conditions: 72 h; IL-2 2.5 ng/mL
Experimental: (§1)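 Drug sensitivity and resistance testing on K562-aAPC-expanded normal NK cells: 5 concentrations (10-fold steps over a 10,000-fold range), 72 h at 37 °C, viability by CellTiter-Glo normalised to DMSO and benzethonium chloride controls; DSS from the fitted curve.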

NK-YS (IL-2 2.5 ng/mL) [2] = assay: as above; conditions: 72 h
[3] = test system: normal primary NK cells, pool 1 (3 donors), resting (IL-2 0 ng/mL); assay: as above; conditions: 72 h
SNK-6 (IL-2 2.5 ng/mL) [4] = assay: as above; conditions: 72 h
KHYG-1 (IL-2 2.5 ng/mL) [5] = assay: as above; conditions: 72 h
IMC-1 (IL-2 20 ng/mL) [6] = assay: as above; conditions: 72 h
YT (IL-2 2.5 ng/mL) [7] = assay: as above; conditions: 72 h
[8] = test system: normal primary NK cells, pool 1 (3 donors) (IL-2 2.5 ng/mL); assay: as above; conditions: 72 h
KAI3 (IL-2 2.5 ng/mL) [9] = assay: as above; conditions: 72 h
NKL (IL-2 2.5 ng/mL) [10] = assay: as above; conditions: 72 h
[11] = test system: normal primary NK cells, pool 3 (3 donors) (IL-2 2.5 ng/mL); assay: as above; conditions: 72 h
DERL-7 (IL-2 2.5 ng/mL) [12] = assay: as above; conditions: 72 h
NK-92 (IL-2 2.5 ng/mL) [13] = assay: as above; conditions: 72 h
[14] = test system: normal primary NK cells, pool 2 (3 donors) (IL-2 2.5 ng/mL); assay: as above; conditions: 72 h
NK-YS (IL-2 2.5 ng/mL) [15] = assay: percent inhibition of viability; higher = more inhibition; conditions: 72 h
[16] = test system: normal primary NK cells, pool 1 (3 donors), resting (IL-2 0 ng/mL); assay: as above; conditions: 72 h
SNK-6 (IL-2 2.5 ng/mL) [17] = assay: as above; conditions: 72 h
KHYG-1 (IL-2 2.5 ng/mL) [18] = assay: as above; conditions: 72 h
IMC-1 (IL-2 20 ng/mL) [19] = assay: as above; conditions: 72 h
YT (IL-2 2.5 ng/mL) [20] = assay: as above; conditions: 72 h
[21] = test system: normal primary NK cells, pool 1 (3 donors) (IL-2 2.5 ng/mL); assay: as above; conditions: 72 h
KAI3 (IL-2 2.5 ng/mL) [22] = assay: as above; conditions: 72 h
NKL (IL-2 2.5 ng/mL) [23] = assay: as above; conditions: 72 h
[24] = test system: normal primary NK cells, pool 3 (3 donors) (IL-2 2.5 ng/mL); assay: as above; conditions: 72 h
DERL-7 (IL-2 2.5 ng/mL) [25] = assay: as above; conditions: 72 h
NK-92 (IL-2 2.5 ng/mL) [26] = assay: as above; conditions: 72 h
[27] = test system: normal primary NK cells, pool 2 (3 donors) (IL-2 2.5 ng/mL); assay: as above; conditions: 72 h
[28] = test system: normal NK cells expanded with K562-aAPC; assay: as above; conditions: 72 h, IL-2 2.5 ng/mL
Experimental: as §1

C=C(c1ccc(C(=O)O)cc1)c1cc2c(cc1C)C(C)(C)CCC2(C)C [Bexarotene] (max concentration tested 10000 nM)
Conditions | drug sensitivity score
DERL-7 (IL-2 2.5 ng/mL) [12] | 0
IMC-1 (IL-2 20 ng/mL) [6] | 0.08
KAI3 (IL-2 2.5 ng/mL) [9] | 2.32
KHYG-1 (IL-2 2.5 ng/mL) [5] | 11.4
NK-92 (IL-2 2.5 ng/mL) [13] | 9.12
NK-YS (IL-2 2.5 ng/mL) [2] | 6.37
NKL (IL-2 2.5 ng/mL) [10] | 15.3
SNK-6 (IL-2 2.5 ng/mL) [4] | 1.61
YT (IL-2 2.5 ng/mL) [7] | 4.39
[1] | 0
[3] | 0.5
[8] | 0
[11] | 0
[14] | 0

percent inhibition of viability [%]
Conditions | 1 nM | 10 nM | 100 nM | 1000 nM | 10000 nM
DERL-7 (IL-2 2.5 ng/mL) [25] | -1.72 | -14.1 | -7.53 | 1.51 | 6.9
IMC-1 (IL-2 20 ng/mL) [19] | -7.44 | -4.67 | -6.9 | -7.39 | 14.5
KAI3 (IL-2 2.5 ng/mL) [22] | -2.82 | 4.02 | 5.5 | 12.6 | 29.6
KHYG-1 (IL-2 2.5 ng/mL) [18] | 0.07 | -1.61 | 31.4 | 35.3 | 42.5
NK-92 (IL-2 2.5 ng/mL) [26] | -0.26 | -14.3 | 18 | 38.2 | 32.8
NK-YS (IL-2 2.5 ng/mL) [15] | -0.63 | -6.05 | 10.2 | 30.5 | 40.5
NKL (IL-2 2.5 ng/mL) [23] | -2.63 | -4.9 | 33.7 | 59.2 | 80.4
SNK-6 (IL-2 2.5 ng/mL) [17] | -4.84 | -4.27 | 10 | 4.19 | 25.4
YT (IL-2 2.5 ng/mL) [20] | 1.74 | -2.56 | 5.09 | 22.2 | 38.4
[16] | 6.01 | -4.44 | -0.24 | 2.22 | 15.6
[21] | 2.65 | 3.77 | 5.07 | -0.78 | 2.54
[24] | -2.37 | -1.77 | 4 | -8.07 | -0.96
[27] | -3.26 | -9.74 | -11.1 | -7.66 | 2.35
[28] | -0.13 | -7.46 | -13.6 | -8.25 | -6.11

CCc1cnn2c(NCc3ccc[n+]([O-])c3)cc(N3CCCC[C@H]3CCO)nc12 [Dinaciclib] (max concentration tested 1000 nM)
Conditions | drug sensitivity score
DERL-7 (IL-2 2.5 ng/mL) [12] | 22.5
IMC-1 (IL-2 20 ng/mL) [6] | 23.7
KAI3 (IL-2 2.5 ng/mL) [9] | 24.6
KHYG-1 (IL-2 2.5 ng/mL) [5] | 23.6
NK-92 (IL-2 2.5 ng/mL) [13] | 25.9
NK-YS (IL-2 2.5 ng/mL) [2] | 28.3
NKL (IL-2 2.5 ng/mL) [10] | 28.8
SNK-6 (IL-2 2.5 ng/mL) [4] | 23.7
YT (IL-2 2.5 ng/mL) [7] | 29.8
[1] | 22.4
[3] | 20
[8] | 23.2
[11] | 26.6
[14] | 28.8

percent inhibition of viability [%]
Conditions | 0.1 nM | 1 nM | 10 nM | 100 nM | 1000 nM
DERL-7 (IL-2 2.5 ng/mL) [25] | 3.44 | 0.2 | 31.4 | 100 | 101
IMC-1 (IL-2 20 ng/mL) [19] | -1.04 | -1.9 | 44 | 99.7 | 102
KAI3 (IL-2 2.5 ng/mL) [22] | 5.48 | 7.7 | 54.5 | 108 | 110
KHYG-1 (IL-2 2.5 ng/mL) [18] | -3.45 | -3.48 | 42.5 | 109 | 112
NK-92 (IL-2 2.5 ng/mL) [26] | -2.1 | 2.09 | 67.9 | 108 | 111
NK-YS (IL-2 2.5 ng/mL) [15] | -6.76 | -1.49 | 87.6 | 104 | 109
NKL (IL-2 2.5 ng/mL) [23] | 4.95 | 3.07 | 88.7 | 109 | 112
SNK-6 (IL-2 2.5 ng/mL) [17] | -7.12 | -37 | 81.4 | 47.2 | 48.2
YT (IL-2 2.5 ng/mL) [20] | -2.44 | 2.09 | 93.8 | 108 | 111
[16] | -4.86 | 1 | 21.3 | 91.6 | 92.6
[21] | -4.8 | 3.36 | 45.1 | 98.6 | 98.7
[24] | -4.86 | 2.55 | 72 | 99.3 | 100
[27] | -6.55 | 2.06 | 90.3 | 97.1 | 94.6
[28] | -4.8 | -2.24 | 30.3 | 101 | 102

Cc1cc2c(F)c(Oc3ncnn4cc(OC[C@@H](C)O)c(C)c34)ccc2[nH]1 [Brivanib] (max concentration tested 1000 nM)
Conditions | drug sensitivity score
DERL-7 (IL-2 2.5 ng/mL) [12] | 0
IMC-1 (IL-2 20 ng/mL) [6] | 0
KAI3 (IL-2 2.5 ng/mL) [9] | 0
KHYG-1 (IL-2 2.5 ng/mL) [5] | 0
NK-92 (IL-2 2.5 ng/mL) [13] | 0
NK-YS (IL-2 2.5 ng/mL) [2] | 0.18
NKL (IL-2 2.5 ng/mL) [10] | 0
SNK-6 (IL-2 2.5 ng/mL) [4] | 0
YT (IL-2 2.5 ng/mL) [7] | 0
[1] | 0
[3] | 0
[8] | 0
[11] | 0
[14] | 0

percent inhibition of viability [%]
Conditions | 0.1 nM | 1 nM | 10 nM | 100 nM | 1000 nM
DERL-7 (IL-2 2.5 ng/mL) [25] | 0.94 | 7.48 | -2.36 | 3.07 | -1.62
IMC-1 (IL-2 20 ng/mL) [19] | -8.23 | -2.37 | -10.1 | -3.91 | -8.67
KAI3 (IL-2 2.5 ng/mL) [22] | -2.86 | 1.99 | -5.53 | -0.99 | -2.38
KHYG-1 (IL-2 2.5 ng/mL) [18] | -4.66 | -2.28 | -3.77 | -3.68 | -5.25
NK-92 (IL-2 2.5 ng/mL) [26] | -10.1 | -9.6 | -3.98 | -10.2 | -5.2
NK-YS (IL-2 2.5 ng/mL) [15] | -2 | -5.08 | -6.17 | 0.88 | 13.4
NKL (IL-2 2.5 ng/mL) [23] | -11.2 | -9.83 | -21.6 | -12.1 | -10.2
SNK-6 (IL-2 2.5 ng/mL) [17] | 5.84 | -0.07 | 3.56 | 8.94 | 4.87
YT (IL-2 2.5 ng/mL) [20] | -2.1 | -2.63 | -1.47 | -0.95 | -3.56
[16] | -11.7 | -6.81 | 7.63 | -9.3 | -5.72
[21] | -8.41 | -6.09 | 4.52 | -3.63 | -4.56
[24] | -9.42 | -10.1 | -12.4 | -11 | -7.07
[27] | -6.73 | -10 | -9.37 | -10.3 | -8.25
[28] | 0.76 | -1.44 | 1.84 | -3.64 | -2.22
